Laboratory results taken from US20130005568A1, “SAFENED HERBICIDAL MIXTURES” (E.I. DU PONT DE NEMOURS AND COMPANY, priority 2011, published 2013).

What was measured:
[1] = tested on: Pioneer 39K40 hybrid maize; assay: Test B: visual plant response rating, postemergence herbicides with Compound 1 rate series; type: in vivo, Zea mays L. spp. indentata Sturt.; settings: in vivo
Protocol: (§1) For all of the following biological tests, plant response ratings were based on a 0-100 scale where zero is growth equivalent to that of untreated plants (no plant response) and 100 represents no additional growth occurring after herbicide treatment.
(§2) Herbicide mixtures were dissolved/dispersed in a non-phytotoxic liquid carrier and were sprayed postemergence to Pioneer 39K40 hybrid maize (Zea mays L. spp. indentata Sturt.) in the third collar growth stage (extended leaf height was 50-60 cm). Treated plants were grown under greenhouse conditions for two weeks before visual evaluations of plant responses were recorded.

[2] = tested on: Pioneer 39K40 hybrid maize; assay: Test A: visual plant response rating, postemergence herbicide treatments alone and with Compound 1; type: in vivo, Zea mays L. spp. indentata Sturt.; settings: in vivo
Protocol: as §1
as §2, with “Pioneer 39K40 hybrid maize used in this test (and also Tests B and C) is particularly sensitive to herbicides that inhibit the acetohydroxy acid synthase enzyme. Herbicide” for “Herbicide”

[3] = tested on: velvetleaf; assay: Test I: postemergence plant response rating; type: in vivo, Abutilon theophrasti Medik.; settings: velvetleaf, postemergence, greenhouse, two weeks, 0-100 scale
Description: as §1
(§3) Herbicide mixtures were formulated, dissolved/dispersed in water containing 0.25% non-ionic surfactant, and sprayed postemergence to the crop: soybean (Glycine max (L.) Merr.) at the 2-leaf growth stage and to weeds: lambsquarters (Chenopodium album L.) and velvetleaf (Abutilon theophrasti Medik.). Weed species were 5-10 cm tall when treated. Treated plants were grown under greenhouse conditions for two weeks before visual evaluations of plant responses were recorded.

[4] = tested on: lambsquarters; assay: Test I: postemergence plant response rating; type: in vivo, Chenopodium album L.; settings: lambsquarters, postemergence, greenhouse, two weeks, 0-100 scale
Description: as §1, §3

[5] = tested on: Pioneer 39K40 hybrid maize; assay: Test C: visual plant response rating, postemergence acetohydroxy acid synthase-inhibiting herbicides alone and with Compound 1; type: in vivo, Zea mays L. spp. indentata Sturt.; settings: greenhouse, two weeks, 0-100 scale
Protocol: as §1
as §2, with “40-60” for “50-60”

[6] = tested on: sunflower variety Pioneer 63N82 bred for resistance to tribenuron-methyl; assay: Test H: tribenuron-tolerant sunflower postemergence plant response rating; type: in vivo, Helianthus annuus L. var. Pioneer 63N82; settings: 2-leaf stage, greenhouse, two weeks, 0-100 scale
Description: as §1
Herbicide mixtures were formulated, dissolved/dispersed in water containing 0.25% non-ionic surfactant, and sprayed postemergence at the 2-leaf growth stage to a sunflower variety (Helianthus annuus L. var. Pioneer 63N82) bred for resistance to tribenuron-methyl. Treated plants were grown under greenhouse conditions for two weeks before visual evaluations of plant responses were recorded.

[7] = tested on: palisade grass; assay: Test K: pasture grass postemergence plant response rating, field conditions; type: in vivo, Brachiaria brizantha (Hochst. ex A. Rich) Stapf; settings: Palisade grass, postemergence, field, four weeks, 0-100 scale
Description: as §1
(§4) Herbicide mixtures were formulated, dissolved/dispersed in water containing 0.25% non-ionic surfactant, and sprayed postemergence to the pasture grasses: Surinam grass (Brachiaria decumbens Stapf), palisade grass (Brachiaria brizantha (Hochst. ex A. Rich) Stapf) and Alexandergrass (Brachiaria plantaginea (Link) A. S. Hitchc.) approximately 10-30 cm tall (extended leaf height). This test was conducted under field conditions. Visual evaluations of plant responses were recorded four weeks after the plants were treated.

[8] = tested on: Alexandergrass; assay: as above; type: in vivo, Brachiaria plantaginea (Link) A. S. Hitchc.; settings: Alexandergrass, postemergence, field, four weeks, 0-100 scale
Description: as §1, §4

[9] = tested on: Surinam grass; assay: as above; type: in vivo, Brachiaria decumbens Stapf; settings: Surinam grass, postemergence, field, four weeks, 0-100 scale
Description: as §1, §4

[10] = tested on: sugarcane; assay: Test J: sugarcane postemergence plant response rating, field conditions; type: in vivo, Saccharum officinarum L.; settings: postemergence, field, four weeks, 0-100 scale
Protocol: as §1
Herbicide mixtures were formulated, dissolved/dispersed in water containing 0.25% non-ionic surfactant, and sprayed postemergence to sugarcane (Saccharum officinarum L.) approximately 20-40 cm tall (extended leaf height). This test was conducted under field conditions. Visual evaluations of plant responses were recorded four weeks after the plants were treated.

[11] = herbicide 4 g ai/ha + Compound 1 125 g ai/ha
[12] = herbicide 8 g ai/ha + Compound 1 125 g ai/ha
[13] = herbicide 30 g ai/ha + Compound 1 70 g ai/ha
[14] = herbicide 30 g ai/ha + Compound 1 140 g ai/ha

## CCS(=O)(=O)c1cccnc1S(=O)(=O)NC(=O)Nc1nc(OC)cc(OC)n1 [Rimsulfuron, rimsulfuron]
[1]
  Observed Response, Herbicide alone: 62
[2]
  Observed Response, Herbicide alone: 92

## COC(=O)c1sccc1S(=O)(=O)NC(=O)Nc1nc(C)nc(OC)n1 [Thifensulfuron-methyl, thifensulfuron-methyl]
[1]
  Observed Response, Herbicide alone: 45
[3]; [11]
  Observed Response, Herbicide mixture with Compound 1: 99
[3]; herbicide 4 g ai/ha
  Observed Response, Herbicide alone: 99
[3]; [12]
  Observed Response, Herbicide mixture with Compound 1: 100
[3]; herbicide 8 g ai/ha
  Observed Response, Herbicide alone: 100
[2]
  Observed Response, Herbicide alone: 73
[4]; [11]
  Observed Response, Herbicide mixture with Compound 1: 99
[4]; herbicide 4 g ai/ha
  Observed Response, Herbicide alone: 98
[4]; [12]
  Observed Response, Herbicide mixture with Compound 1: 100
[4]; herbicide 8 g ai/ha
  Observed Response, Herbicide alone: 100

## COC(=O)c1ccccc1S(=O)(=O)NC(=O)Nc1nc(C)cc(C)n1 [Sulfometuron-methyl, sulfometuron-methyl]
[5]; [12]
  Observed Response, Herbicide mixture with Compound 1: 100
[5]; herbicide 8 g ai/ha
  Observed Response, Herbicide alone: 100
[6]; [11]
  Observed Response, Herbicide mixture with Compound 1: 7
[6]; herbicide 4 g ai/ha
  Observed Response, Herbicide alone: 27
[6]; [12]
  Observed Response, Herbicide mixture with Compound 1: 3
[6]; herbicide 8 g ai/ha
  Observed Response, Herbicide alone: 30
[6]; herbicide 16 g ai/ha + Compound 1 125 g ai/ha
  Observed Response, Herbicide mixture with Compound 1: 3
[6]; herbicide 16 g ai/ha
  Observed Response, Herbicide alone: 33
[6]; herbicide 31 g ai/ha + Compound 1 125 g ai/ha
  Observed Response, Herbicide mixture with Compound 1: 7
[6]; herbicide 31 g ai/ha
  Observed Response, Herbicide alone: 37
[6]; herbicide 62 g ai/ha + Compound 1 125 g ai/ha
  Observed Response, Herbicide mixture with Compound 1: 7
[6]; herbicide 62 g ai/ha
  Observed Response, Herbicide alone: 40
[7]; [13]
  Observed Response, Herbicide mixture with Compound 1: 40
[7]; [14]
  Observed Response, Herbicide mixture with Compound 1: 20
[7]; herbicide 30 g ai/ha
  Observed Response, Herbicide alone: 45
[8]; [13]
  Observed Response, Herbicide mixture with Compound 1: 45
[8]; [14]
  Observed Response, Herbicide mixture with Compound 1: 30
[8]; herbicide 30 g ai/ha
  Observed Response, Herbicide alone: 50
[9]; [13]
  Observed Response, Herbicide mixture with Compound 1: 45
[9]; [14]
  Observed Response, Herbicide mixture with Compound 1: 30
[9]; herbicide 30 g ai/ha
  Observed Response, Herbicide alone: 50
[10]; [13]
  Observed Response, Herbicide mixture with Compound 1: 45
[10]; [14]
  Observed Response, Herbicide mixture with Compound 1: 30
[10]; herbicide 30 g ai/ha
  Observed Response, Herbicide alone: 60
